# Patent US11857560B2, “Pharmaceutical compositions comprising substituted nucleotides and nucleosides for treating viral infections” (priority 2013, dated 2024)
# Where two headings read alike, the source gives them in different places.
# Experiments:
# [1] = Cytotoxicity panel, HepG2; conditions: human, HepG2 cells
# [2] = tested on: Dengue Type 2; assay: Anti-Dengue virus cytoprotection assay, Huh-7 cells; conditions: Huh-7, read-out: Dengue Type 2 Huh-7 Cells (EC50 uM)
# [3] = Cytotoxicity panel, CEM; conditions: human, CEM cells, Cytotoxicity (CC50 uM) CEM
# [4] = Toxicity in Huh-7 cells (Dengue assay); conditions: human, Huh-7 cells
# [5] = Cytotoxicity panel, Huh-7; conditions: human, Huh-7 cells, Cytotoxicity (CC50 uM) Huh-7, Huh-7
# [6] = tested on: Influenza A H1N1; assay: Antiviral activity, Influenza A H1N1; format: cell-based
# [7] = tested on: Influenza A H5N1 (low path); assay: microbe, parasite or virus in culture; format: cell-based; conditions: H5N1, read-out: Influenza A H5N1 (low path) EC50
# [8] = tested on: Influenza B; assay: Antiviral activity, Influenza B; format: cell-based; conditions: Influenza B virus; read-out: Influenza B EC50
# [9] = tested on: Tacaribe Virus; assay: microbe, parasite or virus in culture; format: cell-based; conditions: Mammarenavirus tacaribeense, read-out: Tacaribe Virus EC50
# [10] = tested on: RVFV; assay: microbe, parasite or virus in culture; format: cell-based; conditions: Rift Valley fever virus, read-out: RVFV EC50
# [11] = tested on: CHIK Virus; assay: Antiviral activity, CHIK Virus; format: cell-based; conditions: Chikungunya virus, read-out: CHIK Virus EC50
# [12] = tested on: RSV; assay: Antiviral activity, RSV; format: cell-based; conditions: human respiratory syncytial virus
# [13] = tested on: Measles; assay: Antiviral activity, Measles; format: cell-based, measles virus; conditions: Measles morbillivirus
# [14] = tested on: Dengue Virus; assay: Antiviral activity, Dengue Virus; format: cell-based
# [15] = tested on: West Nile Virus; assay: Antiviral activity, West Nile Virus; format: cell-based; conditions: read-out: West Nile Virus EC50
# [16] = tested on: SARS; assay: microbe, parasite or virus in culture; conditions: Severe acute respiratory syndrome coronavirus, read-out: SARS EC50
# [17] = tested on: Influenza A H3N2; assay: Antiviral activity, Influenza A H3N2; format: cell-based
# [18] = tested on: VEEV; assay: microbe, parasite or virus in culture; format: cell-based; conditions: Venezuelan equine encephalitis virus, read-out: VEEV EC50
# [19] = Cellular toxicity in parallel with HCV replicon assay (XTT); conditions: human
# [20] = tested on: CEM; assay: Cytotoxicity panel, CEM; conditions: read-out: Cytotoxicity (CC50 uM) CEM
# [21] = Cytotoxicity panel, BxPC3; conditions: human, BxPC3 cells
# [22] = Cytotoxicity panel, H9c; format: cell-based; conditions: rat, H9c cells
# [23] = Cytotoxicity panel, IEC-6; format: cell-based; conditions: rat, IEC-6 cells
# [24] = Cytotoxicity panel, A204; format: cell-based; conditions: human, A204 cells
# [25] = Cytotoxicity in GT1b replicon cells; format: cell-based
# [26] = tested on: Dengue Type 2; assay: Anti-Dengue virus cytoprotection assay, Vero cells; conditions: read-out: Dengue Type 2 Vero Cells (EC50 uM)
# [27] = Toxicity in Vero cells (Dengue assay); conditions: African green monkey
# [28] = in vitro
# [29] = Influenza A virus, H1N1; read-out: Influenza A H1N1 EC50
# [30] = Influenza A virus, H3N2; read-out: Influenza A H3N2 EC50
SMILES,CC50 [1] [µM],CC50 [3] [µM],CC50 [5] [µM],EC50 [7] [µM],EC50 [8] [µM],EC50 [9] [µg/mL],EC50 [10] [µg/mL],EC50 [11] [µg/mL],EC50 [12] [µM],EC50 [13] [µM],EC50 [14] [µg/mL],EC50 [15] [µg/mL],EC50 [16] [µM],EC50 [18] [µg/mL],further results
CC(C)OC(=O)[C@H](C)NP(=O)(OC[C@H]1O[C@@H](n2ccc(=O)[nH]c2=S)[C@@H](C)C1O)Oc1ccccc1 (some centres unmarked) [ENUC-02078-1],> 400,259,> 400,,,,,,,,,,,,EC50 [2]: 6.07 µM; CC50 [4]: > 100 µM
Cc1cn([C@@H]2O[C@H](CO)C(O)[C@@H]2F)c(=O)nc1N (some centres unmarked) [EFVX-01855],,,,> 100,> 100,> 100,> 100,> 100,> 100,> 100,> 100,> 100,> 100,> 100,"EC50 [6, 29]: > 100 µM; EC50 [17, 30]: > 100 µM"
CC(C)OC(=O)[C@H](C)NP(=O)(OC[C@H]1O[C@@H](n2ccc(=O)[nH]c2=S)[C@@H](O)C1O)Oc1ccccc1 (some centres unmarked) [ENUC-02071-2],,,,,,,,,,,,,,,CC50 at 72 h [19]: > 100 µM
CN(C)c1ccn([C@@H]2O[C@H](CO)C(O)[C@@H]2F)c(=O)n1 (some centres unmarked) [EFVX-01854],,,,> 100,> 100,> 100,> 100,> 100,> 100,> 100,> 100,> 100,> 100,> 100,"EC50 [6, 29]: > 100 µM; EC50 [17, 30]: > 100 µM"
CC(C)OC(=O)[C@H](C)NP(=O)(OC[C@H]1O[C@@H](n2ccc(=S)[nH]c2=O)[C@@H](O)C1O)Oc1ccccc1 (some centres unmarked) [ENUC-02071-1],,241,381,,,,,,,,,,,,CC50 [20]: > 400 µM; CC50 at 72 h [19]: > 100 µM
CC(C)OC(=O)[C@H](C)NP(=O)(OC[C@H]1O[C@@H](n2ccc(=S)[nH]c2=O)[C@](C)(O)C1O)Oc1ccccc1 (some centres unmarked) [ENUC-01920-1],> 400,,> 400,,,,,,,,,,,,
CC(C)OC(=O)[C@H](C)NP(=O)(OC[C@H]1O[C@@H](n2ccc(=O)[nH]c2=S)[C@](C)(O)C1O)Oc1ccccc1 (some centres unmarked) [ENUC-01911-1],> 400,,> 400,,,,,,,,,,,,CC50 [21]: > 300 µM; CC50 [22]: > 200 µM
CC(C)OC(=O)[C@H](C)NP(=O)(OC[C@H]1O[C@@H](n2ccc(=S)[nH]c2=O)[C@](C)(F)C1O)Oc1ccccc1 (some centres unmarked) [ENUC-01943-1],199,136,,,,,,,,,,,,,CC50 [23]: > 400 µM; CC50 [24]: > 200 µM; CC50 [21]: > 300 µM
"CC(C)OC(=O)[C@H](C)N[P@](=O)(OC[C@H]1O[C@@H](n2ccc(=O)[nH]c2=O)[C@](C)(F)C1O)Oc1ccccc1 (some centres unmarked) [GS-7977, reference compound]",,,,,,,,,,,,,,,CC50 [25]: > 2 µM
CC(C)OC(=O)[C@H](C)N[P@@](=O)(OC[C@H]1O[C@@H](n2ccc(=O)[nH]c2=S)[C@](C)(O)C1O)Oc1ccccc1 (some centres unmarked) [ENUC-02024],,,,,,,,,,,,,,,EC50 [26]: 56.2 µM; EC50 [2]: 24.9 µM; CC50 [4]: > 100 µM; CC50 [27]: > 100 µM
Nc1ccn([C@@H]2O[C@H](CO)C(O)[C@@H]2F)c(=S)n1 (some centres unmarked) [EFVX-01857],,,,> 100,> 100,> 100,> 100,> 100,> 100,> 100,> 100,> 100,> 87,> 100,"EC50 ([6]; Influenza A virus, H1N1, read-out: Influenza A H1N1 EC50): > 100 µM; CC50 [28]: 87 µM; EC50 ([17]; Influenza A virus, H3N2, read-out: Influenza A H3N2 EC50): > 100 µM"
Nc1nc(=O)n([C@@H]2O[C@H](CO)C(O)[C@@H]2F)cc1CO (some centres unmarked) [EFVX-01856],,,,> 100,> 100,> 100,> 100,> 100,> 100,> 100,> 100,> 100,> 100,> 100,"EC50 [6, 29]: > 100 µM; EC50 [17, 30]: > 100 µM"
CC(C)OC(=O)[C@H](C)NP(=O)(OC[C@H]1O[C@@H](n2ccc(=O)[nH]c2=S)[C@@H](O)C1O)Oc1ccccc1 (some centres unmarked) [ENUC-02072-1],> 400,> 400,> 400,,,,,,,,,,,,
CC(C)OC(=O)[C@H](C)N[P@](=O)(OC[C@H]1O[C@@H](n2ccc(=O)[nH]c2=O)[C@](C)(F)C1O)Oc1ccccc1 (some centres unmarked) [ENUC-02025-1],365,> 400,279,,,,,,,,,,,,
CNc1ccn([C@@H]2O[C@H](CO)C(O)[C@@H]2F)c(=O)n1 (some centres unmarked) [EFVX-01853],,,,> 100,> 100,> 100,> 100,> 100,> 100,> 100,> 100,> 100,> 100,> 100,"EC50 [6, 29]: > 100 µM; EC50 [17, 30]: > 100 µM"
